Assay results from US4670562A, “Dihydropyrrolo[1,2-b]isoquinolinedione oximes” (priority 1986, dated 1987).
Read-outs that look alike come from different tables or passages of the source.

Biological target: acetylcholinesterase (Homo sapiens, UniProt P22303)
Test: Cholinesterase Inhibition Assay (photometric method of Ellman et al.)
Type: biochemical
[1] = photometric method of Ellman et al., read-out: Cholinesterase Inhibition IC50

Chain of acetylcholinesterase (P22303 32-614): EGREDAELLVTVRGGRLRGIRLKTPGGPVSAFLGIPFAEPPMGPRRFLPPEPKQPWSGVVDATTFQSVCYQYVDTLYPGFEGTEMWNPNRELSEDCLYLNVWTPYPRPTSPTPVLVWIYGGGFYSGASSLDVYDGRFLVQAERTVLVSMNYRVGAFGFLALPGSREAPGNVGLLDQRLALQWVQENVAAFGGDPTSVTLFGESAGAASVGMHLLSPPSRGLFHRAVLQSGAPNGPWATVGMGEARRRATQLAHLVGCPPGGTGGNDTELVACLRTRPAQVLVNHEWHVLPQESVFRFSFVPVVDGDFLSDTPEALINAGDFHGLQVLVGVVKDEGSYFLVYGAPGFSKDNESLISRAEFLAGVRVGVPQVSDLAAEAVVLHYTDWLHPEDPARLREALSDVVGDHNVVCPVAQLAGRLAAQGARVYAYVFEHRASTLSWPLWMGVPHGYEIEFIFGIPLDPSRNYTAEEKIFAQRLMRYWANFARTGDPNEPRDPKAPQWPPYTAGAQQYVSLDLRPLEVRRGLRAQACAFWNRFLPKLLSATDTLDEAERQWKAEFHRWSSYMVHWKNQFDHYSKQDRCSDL

## c1ccc2c3c(ncc2c1)CCCN3 [1,2,3,4-Tetrahydrobenzo[c]-1,5-naphthyridine]
[1]
  IC50: 61 µM

## O=C(Cc1ccccc1)N1CCCc2ncc3ccccc3c21 [1-(Phenylacetyl)-1,2,3,4-tetrahydrobenzo[c]-1,5-naphthyridine]
[1]
  IC50: 320 µM

## CN1CCN(C2=Nc3c(ncc4ccccc34)CC2)CC1 [3,4-Dihydro-2-(4-methyl-1-piperazinyl)benzo[c]-1,5-naphthyridine hemihydrate]
  IC50: 840 µM
